Measurements published in US9221872B2, “Peptides and peptidomimetics in combination uses and treatments for cancer patient subpopulations” (priority 2013, dated 2015).
Where a SMILES comes first, the peptide text is derived from it. Where no end group is shown, it is not given here. [ ]: non-standard residue; d: D form. dPhe(F5) = N[C@H](Cc1c(F)c(F)c(F)c(F)c1F)C(=O)O; dBpa = N[C@H](Cc1ccc(C(=O)c2ccccc2)cc1)C(=O)O; dCha = N[C@H](CC1CCCCC1)C(=O)O

How the values were obtained:
Jurkat cells [1] = test: G2 checkpoint abrogation, bleomycin treated Jurkat cells, flow cytometry; type: cell-based, human; conditions: for G2 checkpoint abrogating activity: bleomycin treated Jurkat cells
Experimental: Cell-Cycle Analysis The cell cycle status of the cells treated with bleomycin or adriamcin were analyzed by flow cytometry as described by Kawabe (1997) Nature 385:454-458. In brief, two million cells were re-suspended and incubated in 200 μl Krishan's solution (0.1% Sodium citrate, 50 μg/ml PI, 20 μg/ml RNase A and 0.5% NP-40) for 1 hr at 4° C. and analyzed by a flow cytometry, FACScan™ (Beckton Dickinson, Mountain View, Calif.) with the program CELLQuest™ (Beckton Dickinson).
Flow cytometry analysis of G2 checkpoint abrogation was performed using human leukemia derived Jurkat cell line. In brief, cultured cells were treated with various doses of peptide/peptidomimetic and 40 μg/ml bleomycine for 24 hr. The DNA of the cells was stained with propidium iodide and analyzed by flow cytometry.
(§1) The “Appearance of side effect when used alone” indicates the peptide/peptidomimetic dose that produced Jurkat cell cycle disturbance, i.e., the appearance of significant amounts of SubG1 cells (dead cells) or cells in which the DNA content of each varies more than usual. […] The “G2 abrogating dose” indicates the peptide/peptidomimetic dose with 40 μg/ml bleomycine that produced detectable G2 checkpoint abrogation activity following treatment for 24 hours. The “Appearance of side effect when used with colchicine” indicates the peptide/peptidomimetic dose with 5 μg/ml colchicine that produced Jurkat cell cycle disturbance following treatment for 24 hours.
(§2) A comparison between G2 checkpoint abrogating activity and non specific toxicity (M checkpoint abrogation) by CB501 was performed. In brief, Jurkat cells were treated with 40 μg/ml bleomycin or 0.5 μg/ml colchicine for G2 checkpoint abrogating activity and non specific toxicity, respectively. The DNA amount in each of the treated cells was analyzed by flow cytometry, as previously described.

[2] = test system: CBP501-sensitive tumor cells; conditions: cited from earlier work
MIAPaCa2 = test: Sub-G1 (dead cell) analysis of MIAPaCa2 treated with bleomycin or adriamycin; type: cell-based, human; conditions: bleomycine 10 μg/ml or adriamycin 1 μg/ml, 3 hours, then 21 hours
Experimental: The G2 checkpoint abrogating activity of various compounds at different doses on human pancreatic cancer derived cell line MIAPaCa2 treated with bleomycine (Bleo) or adriamycin (ADR) was studied. Briefly, cells were incubated with the compounds and bleomycine (10 μg/ml) or adriamycin (1 μg/ml) for 3 hours. The medium was changed and incubated for an additional 21 hours. Harvested cells were stained for DNA by propium iodide and analyzed with flow cytometry as previously described. The % of the sub-G1 cell population is indicated as dead cells in FIG. 3.

Jurkat cells [3] = test: M phase checkpoint abrogation / non specific toxicity, colchicine treated Jurkat cells; type: cell-based
Experimental: Flow cytometry analysis of M phase checkpoint abrogation by the compounds was performed using human T cell leukemia Jurkat cell line treated with colchicine (5 μg/ml or 0.5 μg/ml) and various doses of peptide/peptidomimetics for 24 hr (FIG. 12). The DNA of the cells was stained and analyzed by flow cytometry as described above.
as §1, §2

[4] = Mouse serum treatment analysis, residual CBP501 quantity by HPLC; type: in vitro ADME; conditions: mouse serum (table title), 37 degree
non-squamous NSCLC = test: Phase II randomized study, cisplatin and pemetrexed with or without CBP501; type: in vivo, human; conditions: for Hazard Ratio OS: Arm A vs Arm B
Experimental: Clinical Study Design: Open-label, multicenter, phase II randomized, two-arm, comparative study. The protocol evaluated full-dose cisplatin and pemetrexed with or without CBP501. […] Randomization was stratified according to baseline stage of disease (IIIb vs IV), presence of brain metastasis and whether or not patients were eligible for bevacizumab therapy.
A cycle was considered to be 3 weeks (21 days).
3. Cisplatin 75 mg/m^2 was administered as a 1-hour i.v. infusion immediately after the pemetrexed infusion.
Cox proportional hazards model was employed to estimate the hazard ratio (HR) for PFS between the 2 treatment arms. The model included the treatment arm as a factor as well as the randomization stratification factors. The following covariates were explored: age, gender, race (Caucasian/non-Caucasian), prior surgery/procedure (yes/no), prior radiotherapy (yes/no), x-ray interpretation (normal/abnormal), ECG interpretation (normal/abnormal), bone scan (normal/abnormal), and time from diagnosis. Any continuous variables such as age and time from diagnosis to study treatment could have been converted into categorical variables by specifying 2 or several classes of values if a better model fit would result. The exploratory variables were entered using a stepwise regression algorithm using the following criteria: a variable must be significant at the 0.25 level to be entered into the model and significant at 0.15 level to remain in the model. For the final model, the point estimate of the hazard ratios were provided along with 95% CIs.
Subgroup analyses were conducted for patients that had […] at screening. Additional subgroup analysis was performed with a software GraphPad Prism 5 with raw data on each patients analyzed.

[5] = cited from earlier work
HUVEC cells = test: G2 checkpoint abrogation by CBP501 combined with cis-platin in various cell lines; type: cell-based, human; conditions: cis-platin 3 μg/ml, 3 hr, then 45 hr
Experimental: The medium was aspirated, fresh medium without these compounds was added and the cells were incubated for an additional 45 hr. The cells including floating cells were harvested using trypsin-EDTA solution, incubated with Krishan's solution and analyzed for DNA content by flow cytometry as previously described.

M1 and M2 macrophages = test: Phagocytic activity of M1 and M2 macrophages, fluorescent beads; type: cell-based, human
Experimental: Referring to FIG. 19, macrophages were obtained by stimulating human peripheral blood mononuclear cells by 0.32 uM of PMA and removing all suspension cells 48 hours of PMA stimulation. The cells were further incubated with 50 ng/ml IFN-gamma, 10 ng/ml LPS to obtain M1 phenotype, and 20 ng/ml IL-4 to obtain M2 macrophages. Both treatment was with or without CBP501. The phagocytic activity was monitored by using fluorescent labelled beads and flow cytometry.

[6] = test system: MIAPaCa2 human pancreatic carcinoma; test: MIAPaCa2 subcutaneous tumor in scid mice; type: in vivo, mouse
Experimental: To study in vivo efficacy of the compounds, MIAPaCa2 human pancreatic carcinoma cells were implanted subcutaneously in scid mice. The treatment was initiated when the size of the primary tumor became 0.1 cm3 (Day0) or larger, e.g., 7 or 8 mm in diameter. CDDP (3 mg/kg) and CBP 501 (10 or 40 mg/kg) were intra-peritoneally administered alone or in combination. Tumor sizes were measured using calipers three times a week, and volumes were calculated using the formula: weight(mg)=[width (mm)2×length (mm)]/2. Mean tumor sizes for each treatment group are plotted (n=4) against the days after the start of treatment (FIG. 10).

HUVEC = test: Growth of normal human umbilical endothelial cells; type: cell-based
Experimental: Similar studies were performed using normal human umbilical endothelial cells (HUVEC).

[7] = test system: MIAPaCa2 human pancreatic carcinoma cells; test: Colony formation analysis of MIAPaCa2 cells; conditions: CBP501 10 μM, cisplatin or oxaliplatin 1, 3 or 9 μg/ml, 3 hours, 10 days
Experimental: Briefly, cells were plated at 300 cells/well in 6 well plates, incubated overnight, and treated with the compounds for three hours. The medium was changed and cultured for an additional 10 days. Cells were subsequently fixed with 70% methanol, stained with 0.1% crystal violet and visualized.

N=C(N)NCCC[C@H](NC(=O)CNC(=O)[C@@H](N)Cc1ccc(O)cc1)C(=O)N[C@@H](CCCCN)C(=O)N[C@@H](CCCCN)C(=O)N[C@@H](CCCNC(=N)N)C(=O)N[C@@H](CCCNC(=N)N)C(=O)N[C@@H](CCC(N)=O)C(=O)N[C@@H](CCCNC(=N)N)C(=O)N[C@@H](CCCNC(=N)N)C(=O)N[C@@H](CCCNC(=N)N)C(=O)N[C@@H](CC1CCCCC1)C(=O)N[C@@H](Cc1c(F)c(F)c(F)c(F)c1F)C(=O)N[C@@H](CCCNC(=N)N)C(=O)N[C@@H](CO)C(=O)N1CCC[C@H]1C(=O)N[C@@H](CO)C(=O)N[C@@H](Cc1ccc(O)cc1)C(=O)N[C@@H](Cc1ccc(O)cc1)C(=O)O [CBP413, (l-Tyr)(l-Gly)(l-Arg)(l-Lys)(l-Lys)(l-Arg)(l-Arg)(l-Gln)(l-Arg)(l-Arg)(l-Arg)(l-Cha)(l-Phe-2,3,4,5,6-F)(l-Arg)(l-Ser)(l-Pro)(l-Ser)(l-Tyr)(l-Tyr)]
G2 abrogating dose (Jurkat cells [1]; with 40 μg/ml bleomycine, 24 hours): ≧1.56 μM

N=C(N)NCCC[C@@H](NC(=O)[C@@H](CCCNC(=N)N)NC(=O)[C@@H](CCC(N)=O)NC(=O)[C@@H](CCCNC(=N)N)NC(=O)[C@@H](CCCNC(=N)N)NC(=O)[C@@H](CCCNC(=N)N)NC(=O)[C@@H](CC1CCCCC1)NC(=O)[C@@H](Cc1c(F)c(F)c(F)c(F)c1F)NC(=O)[C@@H](CO)NC(=O)[C@@H](Cc1c[nH]c2ccccc12)NC(=O)[C@@H](CO)NC(=O)[C@H](N)Cc1ccc(C(=O)c2ccccc2)cc1)C(=O)O [CBP501, (d-Bpa)(d-Ser)(d-Trp)(d-Ser)(d-Phe-2,3,4,5,6-F)(d-Cha)(d-Arg)(d-Arg)(d-Arg)(d-Gln)(d-Arg)(d-Arg)] (H-[dBpa][dS][dW][dS][dPhe(F5)][dCha][dR][dR][dR][dQ][dR][dR]-OH; N-terminus and C-terminus assumed)
Platinum concentration and platinum-DNA adduct formation [2]: increase platinum concentration and platinum-DNA adduct formation | Sensitization to DNA damaging agents (% sub-G1 cells) (MIAPaCa2): sensitized MIAPaCa2 cells to both bleomycin and adriamycin in a dose dependent manner | Effect on M phase cell cycle arrest induced by colchicine (Jurkat cells [3]): does not affect M phase cell cycle arrest and/or non specific toxicity induced by colchicine | Dose up to which non specific toxicity (M checkpoint abrogation) was absent (Jurkat cells [3]; 0.5 μg/ml colchicine): > 50 µM | Residual peptide after 1 hr serum treatment [4]: >90% | Hazard Ratio OS (non-squamous NSCLC; ALL treated, exploring other covariates): 0.77 | Hazard Ratio OS (non-squamous NSCLC; ALL treated, without exploring other covariates): 0.96 | Hazard Ratio OS (non-squamous NSCLC; WBC <10000/μL at screening, exploring other covariates): 0.69 | Hazard Ratio OS (non-squamous NSCLC; WBC <10000/μL at screening, without exploring other covariates): 0.80 | Survival benefit from addition to pemetrexed plus cisplatin (non-squamous NSCLC; all treated population): no statistically significant survival benefit | Survival benefit from addition to pemetrexed plus cisplatin (non-squamous NSCLC; sub-group with normal or low WBC at screening): provided a benefit | G2 checkpoint abrogating activity (Jurkat cells [1]): abrogated in a dose dependent manner | Dose limiting allergic reactions (grade 3) ([5]; CBP501 36.4 mg/m^2 and cisplatin 75 mg/m^2): two out of six patients experienced allergic reactions | MTD in patients ([5]; in combination with cisplatin 75 mg/m^2, once every 21 days): 24.3 mg/m^2 | Dose up to which HUVEC cells were not sensitized to cisplatin (HUVEC cells): > 50 µM | Phagocytosis of macrophages in vitro (M1 and M2 macrophages): inhibited phagocytosis of both M1 and M2 macrophages | Tumor growth, treatment alone ([6]; CBP501 10 or 40 mg/kg intra-peritoneally): suppresses the growth of human pancreatic cancer cell in vivo | Tumor growth, combination with cisplatin ([6]; CDDP 3 mg/kg and CBP501 10 or 40 mg/kg intra-peritoneally): increased the anti-tumor activity of cisplatin | Effect on growth of normal cells (HUVEC): does not affect the growth of HUVEC cells | Effect on cyto-toxic activity of platinum drugs, colony formation [7]: enhanced the cyto-toxic activity of both cisplatin and oxaliplatin

(d-Arg)(d-Arg)(d-Arg)(d-Arg)(d-Bpa)(d-Arg)(d-Trp)(d-Arg)(d-Phe-2,3,4,5,6-F)(d-Cha) ([dR][dR][dR][dR][dBpa][dR][dW][dR][dPhe(F5)][dCha]) [CBP702]
G2 checkpoint abrogating activity (Jurkat cells [1]): retain G2 checkpoint abrogating activity comparable to other peptides having significant G2 checkpoint abrogating activity

(d-Arg)(d-Arg)(d-Arg)(d-Bpa)(d-Arg)(d-Arg)(d-Arg)(d-Phe-2,3,4,5,6-F)(d-Cha) ([dR][dR][dR][dBpa][dR][dR][dR][dPhe(F5)][dCha]) [CBP703]
G2 checkpoint abrogating activity (Jurkat cells [1]): retain G2 checkpoint abrogating activity comparable to other peptides having significant G2 checkpoint abrogating activity

(d-Arg)(d-Arg)(d-Arg)(d-Bpa)(d-Arg)(d-Trp)(d-Arg)(d-Phe-2,3,4,5,6-F)(d-Cha) ([dR][dR][dR][dBpa][dR][dW][dR][dPhe(F5)][dCha]) [CBP701]
G2 checkpoint abrogating activity (Jurkat cells [1]): retain G2 checkpoint abrogating activity comparable to other peptides having significant G2 checkpoint abrogating activity

(d-Arg)(d-Arg)(d-Bpa)(d-Arg)(d-Arg)(d-Arg)(d-Phe-2,3,4,5,6-F)(d-Cha) ([dR][dR][dBpa][dR][dR][dR][dPhe(F5)][dCha]) [CBP700]
G2 checkpoint abrogating activity (Jurkat cells [1]): retain G2 checkpoint abrogating activity comparable to other peptides having significant G2 checkpoint abrogating activity
